“And” between values parts separate entries of the source, which are not always exact repeats. Identical values can stand only once.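 In this assay, cells in 96-well plates receive the compound at five concentrations for 48 hours. Endpoints are linearly interpolated between the surrounding concentrations. Here, GI50 denotes the concentration required for 50% inhibition of growth. Definition used: TGI = concentration required for complete inhibition of growth.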 Where a SMILES comes first, the peptide text is derived from it. Bridges are numbered along the chain shown (N, C = ends). Roman numbers before positions name the chains, in order. [ ]: non-standard residue; d: D form. The star is where a group is joined. Quinoxaline2carbonyl = O=C(c1cnc2ccccc2n1)*; NMeV = CN[CH](C(=O)O)C(C)C; NMeC = CN[CH](CS)C(=O)O
What was measured:
Test in all cases: NCI anticancer screen, dose series, 48 h
[1] = system: 786-0 renal
[2] = system: LOX IMVI melanoma
[3] = system: NCI-H23 lung
[4] = system: HCC-2998 colon
[5] = system: SK-MEL-28 melanoma
[6] = system: M14 melanoma
[7] = system: MDA-MB-435
[8] = system: SF-295 CNS
[9] = system: HCT-116 colon
[10] = system: COLO 205 colon

SMILES	GI50 [1]	TGI [1]	GI50 [2]	TGI [2]	GI50 [3]	TGI [3]	GI50 [4]	TGI [4]	GI50 [5]	TGI [5]	GI50 [6]	TGI [6]	GI50 [7]	TGI [7]	GI50 [8]	TGI [8]	GI50 [9]	TGI [9]	GI50 [10]	TGI [10]
C#CCOc1cccc(Nc2ncnc3c(NC(=O)CCl)cccc23)c1	18.7 µM	37.9 µM	1.7 µM	3.47 µM	18.3 µM	47.9 µM	17.7 µM	34 µM	36.4 µM	> 100 µM	18.2 µM	54.5 µM	26.2 µM	> 100 µM	17.4 µM	34.5 µM	18.1 µM	42.1 µM	18.7 µM	38.4 µM
Cc1nc2ccccc2c(/C=C/c2ccc(Br)cc2)c1C(=O)/C=C/c1ccccc1	1.64 µM	3.18 µM	1.65 µM	3.01 µM	1.66 µM	3.81 µM	1.8 µM	3.54 µM	1.89 µM	3.4 µM	1.85 µM	4.48 µM	1.94 µM	4.69 µM	–	–	0.601 µM	2.28 µM	1.51 µM	3.47 µM
CC(=O)c1c(C(F)(F)F)n([O-])c2ccc(C)cc2[n+]1=O	1.47 µM	4.7 µM	3.29 µM	> 44.2 µM	2.08 µM	11.2 µM	1.89 µM	8.53 µM	23.3 µM	> 100 µM	2.41 µM	8.88 µM	6.99 µM	35.9 µM	5.71 µM	> 44.2 µM	3.89 µM	> 41.1 µM	3.35 µM	> 43.8 µM
N/N=C1\CC(=O)NC(=O)N1	–	> 100 µM	–	> 100 µM	–	> 100 µM	–	–	–	> 100 µM	–	> 100 µM	–	> 100 µM	–	> 100 µM	–	> 100 µM	–	> 100 µM
C[CH2][Pb]([CH2]C)([CH2]C)[O]C(=O)c1ccc2ccccc2n1	> 10 µM	> 10 µM	> 10 µM	> 10 µM	> 10 µM	> 10 µM	> 10 µM	> 10 µM	> 10 µM	> 10 µM	> 10 µM	> 10 µM	> 10 µM	> 10 µM	> 10 µM	> 10 µM	> 10 µM	> 10 µM	> 10 µM	> 10 µM
COc1cc2c(c(OC)c1OC)-c1ccc(SC)c(=O)cc1[C@@H](NC1OC(CO)C(O)C(O)C1O)CC2 (stereo partly specified)	0.0575 µM	> 100 µM	0.037 µM	> 100 µM	0.0568 µM	> 100 µM	0.0368 µM	> 100 µM	1.65 µM	> 100 µM	0.0311 µM	> 100 µM	–	0.0373 µM	0.0338 µM	> 100 µM	0.0314 µM	> 100 µM	0.0161 µM	0.0412 µM
CCOc1nc(N)nc(C)c1N=Nc1ccc(Cl)cc1	–	> 100 µM	–	> 100 µM	–	> 100 µM	–	–	–	> 100 µM	–	> 100 µM	–	> 100 µM	–	94.1 µM	–	> 100 µM	–	> 100 µM
CCN(Cc1ccc(Cl)s1)c1ccc(CO)c(Cl)c1	2.99 µM	21.2 µM	5.24 µM	18.8 µM	3.2 µM	42.1 µM	5.81 µM	28.6 µM	11.8 µM	25.4 µM	10.3 µM	34.3 µM	20.3 µM	59 µM	0.352 µM	15.9 µM	0.0464 µM	11.3 µM	1.73 µM	5.99 µM
Nc1ccccc1SCc1csc(-c2ccc(Cl)cc2)n1	–	47.5 µM	–	35.2 µM	–	> 84.6 µM	–	47.1 µM	–	> 94.5 µM	–	41.7 µM	–	37.8 µM	–	> 100 µM	–	> 100 µM	–	34.6 µM
CSC(=S)N/N=C(\C)c1cccc(C)n1	–	28 µM	–	15.1 µM	–	13.9 µM	–	30.4 µM	–	63.5 µM	–	1.6 µM	–	> 35.7 µM	–	24.8 µM	–	1.84 µM	–	2.82 µM
C/C1=C\[C@@H](O)C(=O)/C=C/C=C\c2csc(n2)[C@@H](C)NC(=O)C[C@@]2(CC1)S(=O)SC(=O)[C@]2(C)O (stereo partly specified)	–	0.0354 µM and 0.0108 µM	–	0.0605 µM	–	0.0275 µM and 0.0102 µM	–	0.676 µM	–	0.0727 µM and 0.0168 µM	–	0.0397 µM	–	0.0562 µM	0.053 µM	0.59 µM and 3.73 µM	0.0045 µM	0.0259 µM	–	0.0903 µM and 0.0418 µM
N#Cc1c(N)[nH]c2ccc(Sc3ccccc3)cc12	–	8.1 µM	–	7.56 µM	–	10.3 µM	–	17.3 µM	–	17.4 µM	–	3.5 µM	–	0.146 µM	–	4.96 µM	–	8.34 µM	–	1.34 µM
COc1ccc(OC)c(C2SCC(=O)N2NC(=O)C(O)c2ccccc2)c1 (stereo unspecified)	> 100 µM	> 100 µM	> 100 µM	> 100 µM	> 100 µM	> 100 µM	> 100 µM	> 100 µM	> 100 µM	> 100 µM	> 100 µM	> 100 µM	> 100 µM	> 100 µM	> 100 µM	> 100 µM	> 100 µM	> 100 µM	> 100 µM	> 100 µM
CCN1C(=O)N(CC)C2C1NN=c1s/c(=C\c3ccccc3Br)c(=O)n12 (stereo unspecified)	0.0525 µM	37 µM	0.0284 µM	16.6 µM	0.0552 µM	29.6 µM	0.0392 µM	4.12 µM	7.19 µM	25 µM	0.0318 µM	13.8 µM	< 0.0137 µM	0.0416 µM	0.0286 µM	15.1 µM	0.0302 µM	11.6 µM	0.03 µM	0.118 µM
CC1NC(=O)C(NC(=O)c2cnc3ccccc3n2)COC(=O)C(C(C)C)N(C)C(=O)C2CSSCC(C(=O)N(C)C(C(C)C)C(=O)OCC(NC(=O)c3cnc4ccccc4n3)C(=O)NC(C)C(=O)N2C)N(C)C1=O (stereo unspecified) (I: Quinoxaline2carbonyl-SA[NMeC][NMeV] / II: Quinoxaline2carbonyl-SA[NMeC][NMeV]; ester I:1-II:C, I:C-II:1; disulfide I:3-II:3; configuration not given here)	–	2.27 µM	–	10.2 µM	–	< 0.0133 µM	–	< 0.01 µM	–	< 0.01 µM	–	< 0.01 µM	–	< 0.01 µM	–	16.9 µM	–	14 µM	–	–

From PubChem BioAssay (NCI)
